The values below come from US11241442B2, “Methods of use for TRP channel antagonist-based combination cancer therapies” (President and Fellows of Harvard College, priority 2017, dated 2022).

Holding throughout (format): cell-based
The subject of one data set is MPNST cells. The experiment in a line: H2O2- and carboplatin-induced cytotoxicity in MPNST cells. To be noted: TRPA1 expression-dependent. As for the experimental part: (§1) For the measurements of live cell number and cell death under treatment with H2O2, diamide, or chemotherapies, cells were cultured on 96-well plates in the presence or absence of these drugs for indicated times and stained with 5 μM bisBenzimide H 33342 trihydrochloride (Hoechst; Sigma) and 5 μM propidium iodide (PI; Sigma) for 1 h at 37° C. Hoechst- and/or PI-positive cells were counted using a laser scanning cytometer, Acumen Cellista (TTPLabTech). Apoptotic cells induced by H2O2 treatment were measured by staining with Annexin V-Alexa Fluor® 488 conjugate (Life Technologies) and PI in Ca^2+-containing solution (10 mM HEPES pH 7.4, 140 mM NaCl; 2.5 mM CaCl2), followed by flow cytometric measurement of fluorescence using a FACSCalibur. Flow cytometry plots are representative of three independent experiments. […] Viable cells were counted using the Countless Automated Cell Counters (Thermo Fisher Scientific). […] Hoechst- and/or PI-positive areas were measured using Acumen Cellista. Apoptotic cells induced by detachment were measured by staining with 5 μM Hoechst and 5 μM of CellEvent™ Caspase-3/7 Green Detection Reagent (Thermo Fisher Scientific) for 1 h at 37° C. without enzymatic dissociation of cell clumps. Hoechst- and/or CellEvent™ Caspase-3/7 Green Detection Reagent-positive areas were measured using Acumen Cellista. […]

Data set [1] deals with TRPA1. The experiment in a line: [Ca2+]i by fura-2 in TRPA1-expressing MCF-10A 3D acini. The settings on record: inner ECM-deprived region of MCF-10A acini. How it is done: (§2) For the measurement of [Ca^2+]i levels in cells cultured in 2D or 3D (in Matrigel), cells were stained with 3.5 μM fura-2-AM (Life Technology) in the presence of 2.5 mM probenecid (Sigma) and 0.02% Pluronic F-127 (Sigma) for 45 min at 37° C. The fura-2 fluorescence was measured in HBS solution containing 1.25 mM probenecid at 37° C. Fluorescence images of the cells were acquired through the Eclipse Ti-E microscope with ORCA-R2 cooled CCD camera and analyzed with Metafluor. The 340:380-nm ratio images were obtained on a pixel-by-pixel basis and were converted to Ca^2+ concentrations by in vivo calibration using 5 μM ionomycin as described previously (Nishida et al., Biochem. Biophys. Res. Commun., 262:350-354, 1999). 3D images are shown as one section from midstructure. For the measurement of [Ca^2+]i levels in cells cultured in suspension, cell clumps were dissociated with trypsin and [Ca^2+]i levels were determined by using Fluo-4 NW Calcium Assay Kit (Molecular Probes). Cells were stained with Fluo-4 according to the manufacturer's instructions and subjected to flow cytometric analysis (FACSCalibur) using HBS as sheath fluid. [Ca^2+]i levels determined by flow cytometry are reported as mean fluorescence intensity expressed in arbitrary units. Time courses of [Ca^2+]i rises in 2D culture are representative of three independent experiments and averaged Δ[Ca^2+]i represents mean±SEM from the sum of three independent experiments. Fura-2 ratio images in 3D culture are representative of two independent experiments and averaged [Ca^2+]i in 3D culture represents mean±SEM from the sum of two independent experiments.

Data set [2] has as its target T1, TRPA1 (Homo sapiens, UniProt O75762).
T1 construct: endogenous in cells; host or cells: HCC1569 breast cancer cells (2D culture or 3D spheroids; shGFP or shTRPA1 transduced)
The experiment in a line: [Ca2+]i by fura-2 in HCC1569 spheroids. The settings on record: AP-18, 300 nM A-967079 or 5 mM NAC. As for the experimental part:
as §2

A further data set has as its system HCC70. The experiment in a line: Live cell number under carboplatin in HCC70 cells. To be noted: 10 μM AP-18; carboplatin 72 h; HCC70, very low TRPA1. As for the experimental part: as §1
Data set [3] deals with T1, TRPA1. Put plainly: Ca2+ responses to carboplatin in HCC1569 cells. The settings on record: 10 μM AP-18 or 300 nM A-967079. As for the experimental part:
as §2

The subject of data set [4] is EL-12-58 cells. Put plainly: Live cell number under carboplatin in EL-12-58 cells. The settings on record: 10 μM AP-18, carboplatin 72 h. As for the experimental part: as §1
A further data set has as its system BT-549. The experiment in a line: Live cell number under carboplatin in BT-549 cells. To be noted: 10 μM AP-18; carboplatin 72 h; BT-549, very low TRPA1. As for the experimental part: as §1
The test system of data set [5] is EL-12-58 cells. Put plainly: Live cell number and cell death under H2O2 in EL-12-58 cells. To be noted: 10 μM AP-18; H2O2 for 72 h. As for the experimental part: as §1
The test system of another data set is HCC1569 spheroids. Put plainly: [H2O2]i by Hyper-2 in HCC1569 spheroids. The settings on record: AP-18, 300 nM A-967079 or 5 mM NAC. How it is done: For the measurement of [H2O2]i levels in MCF-10A acini and HCC1569 spheroids, cells were transduced with a lentiviral vector encoding Hyper-2 or Hyper-2 (C199S). The Hyper-2 fluorescence was measured at 37° C. in HEPES-buffered saline (HBS) containing the following (in mM): 150 NaCl, 6 KCl, 1.2 MgSO4, 2 CaCl2, 11.5 glucose, and 25 HEPES (pH adjusted to 7.4 with NaOH). Fluorescence images of the cells were acquired through the Eclipse Ti-E microscope (Nikon) with ORCA-R2 cooled CCD camera (Hamamatsu Photonics) and analyzed with Metafluor image acquisition software (Molecular Devices). The 488:405-nm ratio images were obtained on a pixel-by-pixel basis. 3D images are shown as one section from midstructure. For the measurement of [H2O2]i levels in MCF-10A cells cultured in suspension, cell clumps were dissociated with trypsin and stained with 10 μM peroxy green-1 for 30 min at 37° C. Cells were then subjected to flow cytometric analysis (FACSCalibur; BD Biosciences). ROS levels determined by flow cytometry are reported as mean fluorescence intensity expressed in arbitrary units. Hyper-2 ratio images are representative from two independent experiments and averaged Hyper-2 ratio represents mean±SD from the sum of two independent experiments.

T1 sequence (O75762 whole entry): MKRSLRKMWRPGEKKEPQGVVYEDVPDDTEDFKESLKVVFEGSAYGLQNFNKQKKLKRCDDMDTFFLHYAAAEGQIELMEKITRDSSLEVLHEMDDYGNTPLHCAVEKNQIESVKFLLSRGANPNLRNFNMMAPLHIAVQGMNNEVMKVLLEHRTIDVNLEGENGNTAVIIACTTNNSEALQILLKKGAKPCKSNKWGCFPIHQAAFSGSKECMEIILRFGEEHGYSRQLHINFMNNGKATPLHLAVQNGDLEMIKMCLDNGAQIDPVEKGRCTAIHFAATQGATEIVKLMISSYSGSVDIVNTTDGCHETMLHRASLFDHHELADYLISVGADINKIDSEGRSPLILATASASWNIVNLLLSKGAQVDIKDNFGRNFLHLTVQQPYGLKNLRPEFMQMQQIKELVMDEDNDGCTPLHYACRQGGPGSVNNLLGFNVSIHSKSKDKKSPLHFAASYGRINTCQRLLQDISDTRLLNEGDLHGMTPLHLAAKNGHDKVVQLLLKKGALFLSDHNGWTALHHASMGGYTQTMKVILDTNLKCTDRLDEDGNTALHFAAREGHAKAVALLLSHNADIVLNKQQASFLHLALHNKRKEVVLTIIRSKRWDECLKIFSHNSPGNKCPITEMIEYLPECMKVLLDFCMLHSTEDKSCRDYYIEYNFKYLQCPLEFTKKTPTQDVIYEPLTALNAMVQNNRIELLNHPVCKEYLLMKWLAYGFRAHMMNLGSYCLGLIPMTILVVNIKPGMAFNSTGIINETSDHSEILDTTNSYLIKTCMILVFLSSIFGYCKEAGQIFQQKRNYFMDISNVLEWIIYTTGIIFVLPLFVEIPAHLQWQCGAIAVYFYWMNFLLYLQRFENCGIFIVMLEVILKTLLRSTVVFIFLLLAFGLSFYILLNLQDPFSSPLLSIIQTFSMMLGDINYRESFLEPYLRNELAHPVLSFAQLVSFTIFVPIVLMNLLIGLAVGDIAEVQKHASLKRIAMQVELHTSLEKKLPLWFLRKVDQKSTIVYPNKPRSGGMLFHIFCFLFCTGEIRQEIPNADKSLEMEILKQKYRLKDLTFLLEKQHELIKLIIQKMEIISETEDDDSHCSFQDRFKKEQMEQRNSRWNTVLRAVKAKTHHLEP
T1 sequence (O75762 682-1119 limits assumed): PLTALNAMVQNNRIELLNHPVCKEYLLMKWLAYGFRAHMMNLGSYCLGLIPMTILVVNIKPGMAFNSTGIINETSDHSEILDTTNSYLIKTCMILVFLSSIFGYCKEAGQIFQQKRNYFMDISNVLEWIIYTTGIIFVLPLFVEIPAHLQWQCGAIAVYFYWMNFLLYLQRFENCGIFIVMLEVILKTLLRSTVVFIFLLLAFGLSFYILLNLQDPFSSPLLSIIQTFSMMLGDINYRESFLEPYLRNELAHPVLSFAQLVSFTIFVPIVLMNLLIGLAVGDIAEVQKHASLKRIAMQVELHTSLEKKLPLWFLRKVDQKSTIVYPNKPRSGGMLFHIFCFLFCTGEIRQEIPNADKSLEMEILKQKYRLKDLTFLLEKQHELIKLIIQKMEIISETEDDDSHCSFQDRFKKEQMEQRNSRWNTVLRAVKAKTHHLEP

On to AP-18, for which, in the data set on MPNST cells (10 μM AP-18, carboplatin 72 h), the “sensitization to carboplatin-induced cytotoxicity” value is on record as “sensitized”. Moreover, in the data set on MPNST cells, the “sensitization to H2O2-induced cytotoxicity” value was “sensitized”. Further, the “TRPA1- or E681K-induced [Ca2+]i rises” value in the data set on TRPA1 [1] was “abolished”. On TRPA1 [2], the “elevated [Ca2+]i of inner cells of spheroids” value is “suppressed”. Besides, the sensitization to carboplatin result with HCC70 is “minimal to no effect”; with EL-12-58 cells [4], “sensitized”; in the data set on BT-549, “minimal to no effect”. For the same substance, on TRPA1 [3], the “[Ca2+]i rises upon carboplatin treatment” value was “significantly suppressed”. On TRPA1 [3], the “oscillatory Ca2+ responses upon carboplatin treatment” value is “significantly suppressed”. The “sensitization to H2O2 cytotoxicity” value in the data set with EL-12-58 cells [5] is listed as “sensitized”. Besides, the “increase in [H2O2]i (Hyper-2) in inner region of spheroids” value with HCC1569 spheroids is reported as “unaffected”.
